Laboratory results reported in patent US7358266B2, “Cyclopropyl and cyclobutyl epothilone analogs” (The Scripps Research Institute, priority 2001, dated 2008).
Entries after “also recorded” stand apart in the source; their conditions may differ.

Columns and labels:
[1] = system: tubulin; test: In vitro tubulin polymerization, fraction of tubulin polymerized (% TP); format: biochemical
Experimental: (§1) The cytotoxicity analysis was supplemented with data from two independent in vitro tubulin polymerization assays. In one assay, the fraction of tubulin polymerized into microtubules upon exposure to a given concentration of the respective compound was determined (see Table 2). In the other assay, tubulin polymerization kinetics upon exposure to the respective compounds was determined using purified rat brain tubulin through measurement of the absorbance at 350 nm (see FIG. 3). For this analysis, paclitaxel, epothilone A (1) and epothilone B (2) were used as controls while compounds 9, 11 and 12 were selected for in vitro analysis.
(§2) FIG. 16 is a table of tubulin polymerization potency^a and cytotoxicity^b of epothilones 1 through 12 and paclitaxel against human epidermoid cancer cell lines.^a% TP=percent tubulin polymerized after incubation of tubulin with a known concentration of compound (typically 3 μM).^b Cytotoxicity towards human cancer cell lines as IC50 values given in nM. KB-31: epidermoid Taxol®-sensitive, KB-8511: epidermoid Taxol®-resistant (due to P-gp over expression).

[2] = system: A8 (β274) epothilone-selected β-tubulin mutant clone of 1A9; test: 72 h growth inhibition assay (SRB), epothilone-selected clone A8; format: cell-based, human
Experimental: (§3) The biological activities of the synthesized epothilones were evaluated through cytotoxicity and tubulin polymerization assays. Cytotoxicity was first evaluated in a set of ovarian carcinoma cell lines, including a parental cell line (IA9) and three drug-resistant cell lines, namely the paclitaxel-resistant cell lines (Giannakakou, P.; et al. J. Biol. Chem. 1997, 272, 17118-17125) IA9/PTX10 and IA9/PTX22 and the epothilone-resistant cell line (Giannakakou, P.; et al. Proc. Natl. Acad. Sci. USA 2000, 97, 2904-2909) 1A9/A8. These resistant cell lines harbor distinct acquired P-tubulin mutations which affect drug-tubulin interaction and result in impaired taxane and epothilone-driven tubulin polymerization. Further cytotoxicity studies were undertaken using a set of human epidermoid cancer cell lines, including a parent cell line (KB-31), and a paclitaxel-resistant (due to P-gp overexpression) cell line (KB-8511).
(§4) IC50 values for each compound are given in nM and represent the mean of 3-5 independent experiments±standard error of the mean. Relative resistance (RR) is calculated as an IC50 value for each resistant subline divided by that for the parental cell line (1A9).^b Data from reference 3. CP=cyclopropyl, CB=cyclobutyl, na=not applicable, nd=not determined, py=5-methylpyridine side chain.

[3] = system: ovarian carcinoma (1A9, PTX10, PTX22, A8) and epidermoid (KB-31, KB-8511) cancer cell lines; test: Cytotoxicity, general statements over the cell line panel; format: cell-based, human; conditions: for cytotoxic activity (in words): cell line not specified or all cell lines
Experimental: as §3, §4, §2

[4] = system: PTX10 (β270) paclitaxel-selected β-tubulin mutant clone of 1A9; test: 72 h growth inhibition assay (SRB), paclitaxel-selected clone PTX10; format: cell-based, human
Experimental: as §3, §4

[5] = system: purified rat brain tubulin; test: Tubulin polymerization kinetics, absorbance at 350 nm; format: biochemical; conditions: for in vitro tubulin polymerization activity (in words) / maximum degree of tubulin polymerization compared with epothilone A (1): A350
Experimental: as §1

[6] = system: 1A9 human ovarian carcinoma cells; test: 72 h growth inhibition assay (SRB), parental 1A9 cells; format: cell-based
Experimental: as §3, §4

[7] = system: KB-31 human epidermoid cancer cell line (Taxol-sensitive); test: Cytotoxicity against human epidermoid cancer cell line KB-31; format: cell-based; conditions: parental sensitive KB-31 cells; 3 compared with epothilone A (1)
Experimental: as §3, §2

[8] = system: PTX22 (β364) paclitaxel-selected β-tubulin mutant clone of 1A9; test: 72 h growth inhibition assay (SRB), paclitaxel-selected clone PTX22; format: cell-based; conditions: Homo sapiens, read-out: IC50 against PTX22
Experimental: as §3, §4

Compound	tubulin polymerization promotion (in words) [1]	activity against clone A8 versus parental line (in words) [2]	cytotoxic activity (in words) [3]	activity against clone PTX10 versus parental line (in words) [4]	time to A350=0.25 ([5]; polymerization kinetics) [min]	inhibition of 1A9 cell growth (in words) ([6]; parental sensitive 1A9 cells, 3 compared with epothilone A (1))	inhibition of KB-31 cell growth (in words) [7]	factor less active than 11 ([3]; cytotoxicity relative to analog 11)	in vitro tubulin polymerization activity (in words) [5]	maximum degree of tubulin polymerization compared with epothilone A (1) [5]	IC50 [8] [nM]	IC50 ([2]; Homo sapiens, 72 h, SRB, read-out: IC50 against A8) [nM]	IC50 ([6]; Homo sapiens, Ovarian carcinoma cell, 1A9, 72 h, SRB, read-out: IC50 in the 1A9 human ovarian carcinoma cell line) [nM]	IC50 ([4]; Homo sapiens, 72 h, SRB, read-out: IC50 against PTX10) [nM]
15S-cyclobutyl epothilone A [Compound 4]	potent tubulin polymerization promoters	lose some activity	retains good activity; also recorded: cytotoxic agents	lose some activity										
C/C(=C\c1csc(C)n1)[C@@H]1C[C@@H]2O[C@@H]2CCC[C@H](C)[C@H](O)[C@@H](C)C(=O)C(C)(C)[C@@H](O)CC(=O)O1 [Compound 1, epothilone A]					2									
C/C(=C\c1csc(C)n1)[C@@H]1C[C@@H]2C[C@@H]2CCC[C@H](C)[C@H](O)[C@@H](C)C(=O)C(C)(C)[C@@H](O)CC(=O)O1 [Compound 3, cyclopropyl epothilone A]	potent tubulin polymerization promoters	lose some activity	cytotoxic agents	lose some activity		slightly more potently	slightly more potently							
C/C(=C\c1ccc(C)cn1)[C@@H]1C[C@@H]2C[C@@H]2CCC[C@H](C)[C@H](O)[C@@H](C)C(=O)C(C)(C)[C@@H](O)CC(=O)O1 [Compound 9]	potent tubulin polymerization promoters	lose some activity	highly active; also recorded: increased cytotoxic activity; also recorded: cytotoxic agents	lose some activity				three to five	good in vitro activity	smaller				
C/C(=C\c1ccc(C)cn1)[C@@H]1C[C@@H]2C[C@H]2CCC[C@H](C)[C@H](O)[C@@H](C)C(=O)C(C)(C)[C@@H](O)CC(=O)O1 [Compound 11, (12R, 13S, 15S)-cyclopropyl 5-methylpyridine epothilone A]	potent tubulin polymerization promoters	lose some activity	outstanding activity; also recorded: increased cytotoxic activity; also recorded: cytotoxic agents	lose some activity					good in vitro activity	smaller	< 10	< 10	0.6	< 10
